Test results taken from patent publication US20110135754A1, “CONTROL OF DISEASES IN CROPS” (priority 2008, published 2011).

What was measured:
rust = experiment: Field spray of vanadyl citrate solution on an oats crop to control rust; assay type: in vivo; conditions: oats crop for stock feed, about 2 hectares, sprayed at approx. 150 mm height, approx. 7.5 grams of elemental vanadium per hectare; adjacent untreated crop failed to give any yield due to rust
Method: A solution containing vanadium in the form of vanadyl citrate was prepared. The solution was sprayed onto about 2 hectares of an oats crop for stock feed, that was in early stages of growth where the crop was approximately 150 mm in height. The spray was applied in a manner such that approximately 7.5 grams of elemental vanadium per hectare, was applied to the crop.

[1] = at 20 c; in water; cited from earlier work

| SMILES | crop yield (cuttings delivered) of treated crop (rust) | solubility [1] [g/100 ml] |
| --- | --- | --- |
| O=C([O-])CC(O)(CC(=O)[O-])C(=O)[O-].[O]=[V+2] [vanadyl citrate] | delivered three cuttings | – |
| [O]=[V](=[O])[O][V](=[O])=[O] [Vanadium Pentoxide, vanadium pentoxide] | – | 0.8 |
